Laboratory results as given in US20040023295A1, “Methods and systems for analyzing complex biological systems” (priority 2001, published 2004).

Tested on: Saccharomyces cerevisiae wild type strain BY4743
Assay: Yeast azole drug experiment AF1: metabolite analysis (GC-MS, LC-MS)
Type: cell-based

## C[C@@H]1[C@H](O)[C@@H](C)/C=C/C=C/C=C/C=C/C=C/C=C/C=C/[C@H](O[C@@H]2O[C@H](C)[C@@H](O)[C@H](N)[C@@H]2O)C[C@@H]2O[C@](O)(C[C@@H](O)C[C@@H](O)[C@H](O)CC[C@@H](O)C[C@@H](O)CC(=O)O[C@H]1C)C[C@H](O)[C@H]2C(=O)O [Amphoteracin B]
Platform nLC, p-Value 1
  Fold Change of metabolite 5hydroxyL-tryptophan: 0
  Fold Change of metabolite 6-benzylaminopurine: 0
  Fold Change of metabolite NacetylD-glucosamine: 0
  Fold Change of metabolite NacetylL-ornithine: 0
  Fold Change of metabolite abscisic acid: 0
  Fold Change of metabolite adenine: 0
  Fold Change of metabolite adenosine: 0
  Fold Change of metabolite anthranilic acid: 0
  Fold Change of metabolite argininosuccinate: 0
  Fold Change of metabolite benzoic acid: 0
  Fold Change of metabolite catechol: 0
  Fold Change of metabolite cinnamic acid: 0
  Fold Change of metabolite citricanoic/itaconi: 0
  Fold Change of metabolite coumaric acid: 0
  Fold Change of metabolite cytosine: 0
  Fold Change of metabolite diaminopimelic acid: 0
  Fold Change of metabolite dihydrofolic acid: 0
  Fold Change of metabolite estrone: 0
  Fold Change of metabolite farnesol: 0
  Fold Change of metabolite folic acid: 0
  Fold Change of metabolite gibberellic: 0
  Fold Change of metabolite guanine: 0
  Fold Change of metabolite histidine: 0
  Fold Change of metabolite homogentisic/uric: 0
  Fold Change of metabolite hydrocortisone: 0
  Fold Change of metabolite indole3-pyruvic acid: 0
  Fold Change of metabolite jasmonic acid: 0
  Fold Change of metabolite luteolin: 0
  Fold Change of metabolite malonic acid: 0
  Fold Change of metabolite methionine: 0
  Fold Change of metabolite phenylpyruvic acid: 0
  Fold Change of metabolite phosphoenolpyruvate: 0
  Fold Change of metabolite pinitol: 0
  Fold Change of metabolite porphobilinogen: 0
  Fold Change of metabolite retinoic acid: 0
  Fold Change of metabolite salicylic/HObenzoic: 0
  Fold Change of metabolite shikimic acid: 0
  Fold Change of metabolite sinapinic acid: 0
  Fold Change of metabolite thymine: 0
Platform pLC, p-Value 0.229215472
  Fold Change of metabolite DL-aminoadipic acid: 0.4703
Platform pLC, p-Value 0.251617022
  Fold Change of metabolite mevalonic lactone: −0.4606
Platform pLC, p-Value 0.367502423
  Fold Change of metabolite methionine: 0.3299
Platform pLC, p-Value 0.392871315
  Fold Change of metabolite NacetylL-ornithine: 1.319
Platform pLC, p-Value 0.433366283
  Fold Change of metabolite citrulline: 1.798
Platform pLC, p-Value 0.474762121
  Fold Change of metabolite proline: 0.6707
Platform pLC, p-Value 0.48461244
  Fold Change of metabolite ornithine: 0.5049
Platform pLC, p-Value 0.522893347
  Fold Change of metabolite arginine: 0.4662
Platform pLC, p-Value 0.526485859
  Fold Change of metabolite asparagine: 0.6344
Platform pLC, p-Value 0.540255177
  Fold Change of metabolite alanine/sarcosine: 0.2602
Platform pLC, p-Value 0.556385814
  Fold Change of metabolite pipecolic acid: 0.5237
Platform pLC, p-Value 0.563874982
  Fold Change of metabolite glutamate: 0.4341
Platform pLC, p-Value 0.573569375
  Fold Change of metabolite phenylalanine: 0.4036
Platform pLC, p-Value 0.575742486
  Fold Change of metabolite mannitol: 0.4543
Platform pLC, p-Value 0.618892728
  Fold Change of metabolite glutamine/lysine: 0.3981
Platform pLC, p-Value 0.626001257
  Fold Change of metabolite aspartic acid: 0.3594
Platform pLC, p-Value 0.668114613
  Fold Change of metabolite threonine/homoserin: 0.3145
Platform pLC, p-Value 0.716422123
  Fold Change of metabolite serine: 0.2011
Platform pLC, p-Value 0.723852356
  Fold Change of metabolite leucine/isoleucine/: 0.2746
Platform pLC, p-Value 0.74082632
  Fold Change of metabolite hypoxanthine: 0.2057
Platform pLC, p-Value 0.776529987
  Fold Change of metabolite pyridoxine: −0.1684
Platform pLC, p-Value 0.886514477
  Fold Change of metabolite guanosine: 0.7598
Platform pLC, p-Value 0.888275646
  Fold Change of metabolite selenoDL-methionine: 1.178
Platform pLC, p-Value 0.892253251
  Fold Change of metabolite adenine: 0.1153
Platform pLC, p-Value 0.920009792
  Fold Change of metabolite 4ambutyrate/dimglyc: 0.01279
Platform pLC, p-Value 0.951676383
  Fold Change of metabolite glutathione: −0.03348
Platform pLC, p-Value 1
  Fold Change of metabolite 4-aminobenzoic acid: 0
  Fold Change of metabolite 4-methylcatechol: 0
  Fold Change of metabolite 5hydroxyL-tryptophan: 0
  Fold Change of metabolite 6benzylaminopurine: 0
  Fold Change of metabolite NacetylD-glucosamine: 0
  Fold Change of metabolite NacetylL-glutamate: 0
  Fold Change of metabolite abscisic acid: 0
  Fold Change of metabolite adenosine: 0
  Fold Change of metabolite allantoic acid: 0
  Fold Change of metabolite anthranilic acid: 0
  Fold Change of metabolite argininosuccinate: 0
  Fold Change of metabolite biotin: 0
  Fold Change of metabolite caffeine: 0
  Fold Change of metabolite citric acid TME: 0
  Fold Change of metabolite cytidine: 0
  Fold Change of metabolite cytosine: 0
  Fold Change of metabolite diaminopimelic acid: 0
  Fold Change of metabolite dihydrofolic acid: 0
  Fold Change of metabolite dipicolinic acid: 0
  Fold Change of metabolite folic acid: 0
  Fold Change of metabolite glucosamine: 0
  Fold Change of metabolite glucosamine6PO4: 0
  Fold Change of metabolite histidine: 0
  Fold Change of metabolite hydrocortisone: 0
  Fold Change of metabolite itaconic acid dimes: 0
  Fold Change of metabolite luteolin: 0
  Fold Change of metabolite niacinamide: 0
  Fold Change of metabolite nopaline: 0
  Fold Change of metabolite phosphoenolpyruvate: 0
  Fold Change of metabolite progesterone: 0
  Fold Change of metabolite riboflavin: 0
  Fold Change of metabolite sugar-phosphate: 0
  Fold Change of metabolite thiamine: 0
  Fold Change of metabolite thymine: 0
  Fold Change of metabolite tryptophan: 0
Platform pLC, p-Value 7.53474E−05
  Fold Change of metabolite nicotinic acid: −0.9989
